We go through 25 compounds from patent US6369226B1, “Substituted benzamide inhibitors of rhinovirus 3C protease” (Agouron Pharmaceuticals, Inc., priority 1999, dated 2002).

Like-named read-outs stand apart in the source and are kept apart here.

For orientation: EC50 means the concentration giving half of the maximal effect. As usually defined, the melting point is the temperature, or range, at which the solid turns liquid. For orientation: CC50 means the concentration that lowers cell viability or growth by half. Higher therefore signals lower toxicity to the cells. For orientation: Ki means the dissociation constant of the complex between target and ligand, obtained from inhibition or displacement. High values mean weaker binding, low ones tighter binding.

In one series the target is T1, HRV-14 3CP (Human rhinovirus 14, UniProt P03303).
T1 construct: The 2A and 3C protease (3CP) process this polyprotein into its functional viral proteins in HRV
T1 sequence (P03303 1538-1719): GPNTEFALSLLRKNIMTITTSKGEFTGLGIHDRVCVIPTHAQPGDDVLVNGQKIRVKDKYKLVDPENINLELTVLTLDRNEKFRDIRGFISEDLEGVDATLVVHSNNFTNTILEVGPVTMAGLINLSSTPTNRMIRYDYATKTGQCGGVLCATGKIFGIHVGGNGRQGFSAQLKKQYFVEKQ
The series can be described thus: 3CP enzyme inhibition assay. The note with it: for kinact/KI: read-out: Kobs/[I]. In kind it is biochemical. The text has this:
3CP Inhibition Assays and Antiviral Assays The details of the 3CP enzyme assays used and the antiviral assays used are outlined in Dragovich, P. S., Webber, S. E, Babine, R. E., Fuhrman, S. A., Patick, A. K., Matthews, D. A., Lee, C. A., Reich, S. H., Prins, T. J., Marakovits, J. T., Littlefield, E. S., Zhou, R., Tikhe, J., Ford, C. E., Wallace, M. B., Meador, III, J. W., Ferre, R., Brown, E. L., Binford, S. L, Harr, , J. E. V., DeLisle, D. M. and Worland, S. T. Structure-Based Design, Synthesis, and Biological Evaluation of Irreversible Human Rhinovirus 3C Protease Inhibitors. 1. Michael Acceptor Structure-Activity Studies J. Med. Chem. 1998,41, 2806, the disclosure of which is incorporated by reference herein.

In a further series the test system is HRV-14. The series can be described thus: antiviral cytopathic effect assay employing H1-HeLa cells infected with HRV-14. To be noted: for EC50: Rhinovirus B, HRV14, H1-HeLa. In kind it is cell-based, human rhinovirus serotype 14.
Series [1] can be described thus: cytotoxicity (CC50) in the antiviral cell culture assay. The note with it: human.
The target in another series is T2, 3CP (Human rhinovirus 14, UniProt P03303).
T2 construct: The 2A and 3C protease (3CP) process this polyprotein into its functional viral proteins in HRV
T2 sequence (P03303 1538-1719): as above
The series is described as follows: loss of 3CP inhibitory activity after exposure of compound to DTT. In kind it is biochemical. The note with it: for DTT inhib.: loss of 3CP inhibitory activity after exposure to 5 mM DTT for 2-3 min at 23° C. How it is done:
With this information in hand, additional esters were prepared and tested. It was anticipated that by filling the active site in the prime direction (S1′-S2′), additional affinity might be obtained. […] To determine whether the activity of the parent compound 1 was due to the inherent reactivity of the unsaturated ester, alternative substitutions were examined in the 1-position corresponding to the S1 recognition pocket. […] (Webber, S. E., Tikhe, J., Worland, S. T., Fuhrman, S. A., Hendrickson, T. F., Matthews, D. A., Love, R. A., Patick, A. K., Meador, J. W., Ferre, R. A., Brown, E. L., DeLisle, D. M., Ford, C. E., Binford, S. L. Design, Synthesis, and Evaluation of Nonpeptidic Inhibitors of Human Rhinovirus 3C Protease. J. Med. Chem. 1996, 39, 5072-5082.) Increased activation of the Michael acceptor toward nucleophilic addition, by alpha cyano substitution, led to a modest but reversible inhibitor, compound 9. Various unsaturated imides, also expected to be more reactive than an unsaturated ester, were poor inhibitors. Exploration of α,β-unsaturated ketones led to some interesting findings. […] When tested in the antiviral assay, ketones in general had greater toxicity (lower CC50) and no measurable antiviral effect. […] (Dragovich, P. S., Webber, S. E, Babine, R. E., Fuhrman, S. A., Patick, A. K., Matthews, D. A., Lee, C. A., Reich, S. H., Prins, T. J., Marakovits, J. T., Littlefield, E. S., Zhou, R., Tikhe, J., Ford, C. E., Wallace, M. B., Meador, III, J. W., Ferre, R., Brown, E. L., Binford, S. L, Harr, J.E. V., DeLisle, D. M. and Worland, S. T. Structure-Based Design, Synthesis, and Biological Evaluation of Irreversible Human Rhinovirus 3C Protease Inhibitors. 1. Michael Acceptor Structure-Activity Studies J. Med. Chem. 1998,41, 2806.) Electron-donating substituents at the 4-position of the phenyl ketone (4-Me2N—, 4-MeO—), were expected to make the ketones less reactive, however, no effect on their inactivation with DTT was observed. Similarly, heterocyclic ketones (2-pyridyl, 2-furyl) maintained their reactivity with DTT. In an attempt to make the inhibitors more compact, an indenone scaffold was designed. […] It became clear that while small, nonpeptidic α,β-unsaturated ketones such as compound 22 afforded potent […] inhibition of 3CP, this increased reactivity was incompatible with the more complex cellular milieu present in the cytopathic effect assay.

The mark [2] stands for this setting: Table 1, Serotype 14, NI = no inhibition.

In the case of “3-[3-Carbamoyl-5-(5-pyridin-2-yl-[1,3,4]oxaldiazol-2-ylsulfanylmethyl-phenyl]-acrylic acid ethyl ester [Compound 25]”, the “Kobs/[I]” value on HRV-14 3CP (Table 3, Serotype 14) stood at 286 M⁻¹ s⁻¹.

In turn, `CCOC(=O)/C=C/c1cccc(C(N)=O)c1` [Compound 1, 3-(3-Carbamoylphenyl)-acrylic acid ethyl ester] had a melting point of 168 to 170 °C. Besides, the kinact/KI on HRV-14 3CP was determined as 52 M⁻¹ s⁻¹. This compound also gave an EC50 in the series with HRV-14 of 15.9 µM. The same compound came in with a CC50 in series [1] of more than 320 µM.

In turn, `NC(=O)c1cccc(C=O)c1` [Compound 1a, 3-Carbamoyl-benzaldehyde] registered a Ki on HRV-14 3CP of 104 µM.

Turning to `COC(=O)/C=C/c1cccc(C(N)=O)c1` [Compound 2, 3-(3-Carbamoyl-phenyl)-acrylic acid methyl ester], at HRV-14 3CP (setting [2]), the kinact/KI amounted to 28 M⁻¹ s⁻¹. Moreover, in the series on HRV-14, the “fold less active in the antiviral assay relative to ethyl ester compound 1” value worked out at 10 fold and a half-maximal effect (EC50) was put at 150 µM. Besides, the CC50 in series [1] is more than 320 µM.

Turning to `NC(=O)c1cccc(C=CC(=O)OCCO)c1` [Compound 4, 3-(3-Carbamoyl-phenyl)-acrylic acid 2-hydroxyethyl ester], the kinact/KI at HRV-14 3CP (setting [2]) was 42 M⁻¹ s⁻¹. A half-maximal response with HRV-14 (EC50) required 20 µM. In series [1], the CC50 is more than 320 µM.

For the compound `NC(=O)c1cccc(C=CC(=O)OCCc2ccccc2)c1` [Compound 5, 3-(3-Carbamoyl-phenyl)-acrylic acid phenethyl ester], the kinact/KI on HRV-14 3CP (setting [2]) amounted to 83 M⁻¹ s⁻¹. The same compound registered an EC50 in the series with HRV-14 of 100 µM. Moreover, the CC50 in series [1] was more than 320 µM.

Take `NC(=O)c1cccc(C=CC(=O)OCc2cccnc2)c1` [Compound 6, 3-(3-Carbamoyl-phenyl)-acrylic acid pyridin-3-yl methyl ester]: the “Kobs/[I]” value at HRV-14 3CP (setting [2]) was determined as 57 M⁻¹ s⁻¹.

The compound `CCOC(=O)/C(C#N)=C/c1cccc(C(N)=O)c1` [Compound 9, (E)-3-(3-Carbamoyl-phenyl)-2-cyano-acrylic acid ethyl ester] had an EC50 with HRV-14 of more than 100 µM. The compound further gave a CC50 in series [1] of more than 100 µM.

For `CCOC(=O)/C=C/c1cc(C(N)=O)ccc1C` [Compound 10, 6-Methyl-3-(3-carbamoylphenyl)-acrylic acid ethyl ester], the “% inhibition (printed in the Kobs/[I] column)” value on HRV-14 3CP (@ 25 (concentration unit not given), Serotype 14) was 10% @ 25. The same compound showed a 50% effective concentration (EC50) in the series on HRV-14 of more than 100 µM. In series [1], this compound returned a half-maximal cytotoxic concentration (CC50) of more than 100 µM.

Compound `CCOC(=O)/C=C/c1cc(O)cc(C(N)=O)c1` [Compound 11, 3-(3-Carbamoyl-5-hydroxy-phenyl)-acrylic acid ethyl ester] came in with a melting point of 200 to 202 °C. At HRV-14 3CP (setting [2]), the kinact/KI was determined as 47 M⁻¹ s⁻¹. For the same compound, the concentration for a half-maximal effect (EC50) with HRV-14 was more than 100 µM. In series [1], this compound gave a CC50 of more than 100 µM.

Regarding `CCOC(=O)C=Cc1cc(OCc2ccccc2)cc(C(N)=O)c1` [Compound 12, 3-(3-Benzyloxy-5-carbamoyl-phenyl)-acrylic acid ethyl ester], the melting point was in the range of 193 to 194 °C.

Take `CCOC(=O)/C=C/c1cc(CO)cc(C(N)=O)c1` [Compound 13, 3-(3-Carbamoyl-5-hydroxymethyl-phenyl)-acrylic acid ethyl ester]: the kinact/KI on HRV-14 3CP (setting [2]) is 54 M⁻¹ s⁻¹. Moreover, the EC50 in the series with HRV-14 is more than 100 µM. In series [1], the CC50 was more than 100 µM.

Consider `CCOC(=O)C=Cc1ccc(OCc2ccccc2)c(C(N)=O)c1` [Compound 15, 3-(4-Benzyloxy-3-carbamoyl-phenyl)-acrylic acid ethyl ester], for which the kinact/KI at HRV-14 3CP (setting [2]) is 30 M⁻¹ s⁻¹. In the series with HRV-14, the EC50 is more than 320 µM. Moreover, the CC50 in series [1] was more than 320 µM.

`CC(=O)C=Cc1cccc(C(N)=O)c1` [Compound 16, 3-(3-Oxo-but-1-enyl)-benzamide] yielded a concentration giving a half-maximal response (EC50) with HRV-14 of 32 µM. Besides, at 3CP, the DTT inhib. result is “yes”. The compound also had a CC50 in series [1] of 40 µM.

In the series on HRV-14, `NC(=O)c1cccc(C=CC(=O)c2ccccc2)c1` [Compound 17, 3-(3-Oxo-3-phenyl-prop-1-enyl)-benzamide] registered an EC50 of 28 µM. The DTT inhib. result on 3CP was “yes”. In addition, the CC50 in series [1] is more than 28 µM.

Compound `CN(C)c1ccc(C(=O)/C=C/c2cccc(C(N)=O)c2)cc1` [Compound 18, 3-[3-(4-Dimethylamino-phenyl)-oxo-propenyl] benzamide] came in with an EC50 in the series with HRV-14 of more than 15 µM. For the same compound, at 3CP, the DTT inhib. result was “yes”. Also, the CC50 in series [1] was more than 15 µM.

In the series on HRV-14, `COc1ccc(C(=O)/C=C/c2cccc(C(N)=O)c2)cc1` [Compound 19, 3-[3-(4-Methoxy-phenyl)-oxo-propenyl] benzamide] had an EC50 of more than 22 µM. The DTT inhib. entry at 3CP is “yes”. Further, in series [1], the CC50 was more than 22 µM.

The compound `NC(=O)c1cccc(C=CC(=O)c2ccccn2)c1` [Compound 20, 3-(3-Oxo-3-pyridin-2-yl-propenyl)-benzamide] yielded an EC50 in the series with HRV-14 of more than 50 µM. The DTT inhib. entry on 3CP was “yes”. In addition, the CC50 in series [1] is more than 50 µM.

In the series on HRV-14, `NC(=O)c1cccc(C=CC(=O)c2ccco2)c1` [Compound 21, 3-(3-Furan-2-yl-3-oxo-propenyl)-benzamide] had a concentration for a half-maximal effect (EC50) of more than 71 µM. The DTT inhib. entry at 3CP was “yes”. Further, the CC50 in series [1] is more than 71 µM.

Regarding `NC(=O)c1ccc2c(c1)C=CC2=O` [Compound 22, 1-Oxo-1H-indene-5-carboxylic acid amide], the melting point is 275 °C (dec.). Besides, in the series on HRV-14, the “antiviral activity (in words)” value was “no antiviral activity” and the EC50 was more than 20 µM. In addition, at 3CP, the DTT inhib. entry is reported as “yes”. Also, the “inactivation by DTT (in words)” value at 3CP (upon incubation with DTT) was “inactivated by DTT”. Besides, in series [1], the CC50 was more than 20 µM.

In the case of `CCOC(=O)C=Cc1cc(CN(CCC(=O)OCC)Cc2ccccc2)cc(C(N)=O)c1` [Compound 23, 3-(3-{[Benzyl-(2-ethoxycarbonyl-ethyl)-amino]-methyl}-5-carbamoyl-phenyl)-acrylic acid ethylester], the kinact/KI at HRV-14 3CP (Table 3, Serotype 14) was 568 M⁻¹ s⁻¹. In the series on HRV-14, this compound had an EC50 of 10 µM. The compound also returned a CC50 in series [1] of more than 100 µM.

Turning to `CCOC(=O)C=Cc1cc(CN2CCN(c3ccccn3)CC2)cc(C(N)=O)c1` [Compound 26, 3-[3-Carbamoyl-5-(4-pyridin-2-yl-piperizin-1-methyl)-phenyl]-acrylic acid ethyl ester], the “Kobs/[I]” value at HRV-14 3CP (Table 3, Serotype 14) is 269 M⁻¹ s⁻¹.

Consider `CCOC(=O)C=Cc1cc(CN2CCN(C(=O)OCC)CC2)cc(C(N)=O)c1` [Compound 28, 4-[3-Carbamoyl-5-(2-ethoxycarbonyl-vinyl)-benzyl]-piperazine-1-carboxylic acid ethyl ester], for which the kinact/KI on HRV-14 3CP stood at 130 M⁻¹ s⁻¹. The compound further gave an EC50 in the series on HRV-14 of 1.8 µM. Besides, in series [1], the CC50 is more than 100 µM.

As to `CCOC(=O)C=Cc1cc(CN2CCN(c3ncccn3)CC2)cc(C(N)=O)c1` [Compound 29, 3-{3-Carbamoyl-5-(4-pyrimidin-2-yl-piperazin-1-ylmethyl)-phenyl}-acrylic acid ethyl ester], the kinact/KI at HRV-14 3CP came out at 163 M⁻¹ s⁻¹. In addition, the EC50 in the series on HRV-14 (Table 3, Serotype 14, read-out: EC50) came out at 1 µM. This compound also yielded a CC50 in series [1] of more than 100 µM.

Turning to `CCOC(=O)C=Cc1cc(CN2CCN(c3ccccc3C#N)CC2)cc(C(N)=O)c1` [Compound 30, 3-{3-Carbamoyl-5-[4-(2-cyano-phenyl)-piperazin-1-ylmethyl]-phenyl}-acrylicacid ethyl ester], on HRV-14 3CP (Table 3, Serotype 14), the kinact/KI is 139 M⁻¹ s⁻¹. The “antiviral activity (in words)” value in the series on HRV-14 is reported as “submicromolar antiviral activity”. In addition, the EC50 with HRV-14 and in the series on HRV-14 (read-out: antiviral EC50) was 0.6 µM in each case. Further, in series [1], the CC50 was 79 µM.
